Source: ChEMBL document CHEMBL4507287, “Data for DCP probe MRL-650” (2021)

Columns and labels:
[1] = target: Serine/threonine-protein kinase OSR1 (Homo sapiens) (UniProt O95747); settings: Compound concentration 1000.0 nM
[2] = target: Serine/threonine-protein kinase PRP4 homolog (Homo sapiens) (UniProt Q13523); settings: Compound concentration 1000.0 nM
[3] = target: Mast/stem cell growth factor receptor Kit (Homo sapiens) (UniProt P10721); settings: Compound concentration 1000.0 nM
[4] = tested on: Mast/stem cell growth factor receptor Kit (Homo sapiens), P10721 [A829P]; settings: Compound concentration 1000.0 nM
[5] = target: Epidermal growth factor receptor (Homo sapiens) (UniProt P00533); settings: Compound concentration 1000.0 nM
[6] = target: Serine/threonine-protein kinase haspin (Homo sapiens) (UniProt Q8TF76); settings: Compound concentration 1000.0 nM
[7] = target: G protein-coupled receptor kinase 4 (Homo sapiens) (UniProt P32298); settings: Compound concentration 1000.0 nM
[8] = target: STE20/SPS1-related proline-alanine-rich protein kinase (Homo sapiens) (UniProt Q9UEW8); settings: Compound concentration 1000.0 nM
[9] = tested on: Tyrosine-protein kinase ABL1 (Homo sapiens), P00519 [E255K]; settings: Compound concentration 1000.0 nM
[10] = target: Tyrosine-protein kinase JAK2 (Homo sapiens) (UniProt O60674); settings: Compound concentration 1000.0 nM
[11] = target: Tyrosine-protein kinase JAK1 (Homo sapiens) (UniProt P23458); settings: Compound concentration 1000.0 nM
[12] = target: Tyrosine-protein kinase BTK (Homo sapiens) (UniProt Q06187); settings: Compound concentration 1000.0 nM
[13] = target: Serine/threonine-protein kinase 26 (Homo sapiens) (UniProt Q9P289); settings: Compound concentration 1000.0 nM
[14] = tested on: Mast/stem cell growth factor receptor Kit (Homo sapiens), P10721 [L576P]; settings: Compound concentration 1000.0 nM
[15] = target: Macrophage colony-stimulating factor 1 receptor (Homo sapiens) (UniProt P07333); settings: Compound concentration 1000.0 nM
[16] = target: Serine/threonine-protein kinase 38-like (Homo sapiens) (UniProt Q9Y2H1); settings: Compound concentration 1000.0 nM
[17] = target: 1-phosphatidylinositol 3-phosphate 5-kinase (Homo sapiens) (UniProt Q9Y2I7); settings: Compound concentration 1000.0 nM
[18] = target: Serine/threonine-protein kinase N1 (Homo sapiens) (UniProt Q16512); settings: Compound concentration 1000.0 nM
[19] = target: Mitogen-activated protein kinase kinase kinase 3 (Homo sapiens) (UniProt Q99759); settings: Compound concentration 1000.0 nM
[20] = target: Serine/threonine-protein kinase Nek7 (Homo sapiens) (UniProt Q8TDX7); settings: Compound concentration 1000.0 nM
[21] = target: Myosin light chain kinase 2, skeletal/cardiac muscle (Homo sapiens) (UniProt Q9H1R3); settings: Compound concentration 1000.0 nM
[22] = target: Serine/threonine-protein kinase Nek9 (Homo sapiens) (UniProt Q8TD19); settings: Compound concentration 1000.0 nM
[23] = target: Focal adhesion kinase 1 (Homo sapiens) (UniProt Q05397); settings: Compound concentration 1000.0 nM
[24] = target: Calcium/calmodulin-dependent protein kinase type II subunit gamma (Homo sapiens) (UniProt Q13555); settings: Compound concentration 1000.0 nM
[25] = target: Serine/threonine-protein kinase 32C (Homo sapiens) (UniProt Q86UX6); settings: Compound concentration 1000.0 nM
[26] = target: Cyclin-dependent kinase 11A (Homo sapiens) (UniProt Q9UQ88); settings: Compound concentration 1000.0 nM
[27] = target: Mitogen-activated protein kinase 3 (Homo sapiens) (UniProt P27361); settings: Compound concentration 1000.0 nM
[28] = tested on: Proto-oncogene tyrosine-protein kinase receptor Ret (Homo sapiens), P07949 [V804M]; settings: Compound concentration 1000.0 nM
[29] = target: Calcium/calmodulin-dependent protein kinase type 1 (Homo sapiens) (UniProt Q14012); settings: Compound concentration 1000.0 nM
[30] = target: Interleukin-1 receptor-associated kinase 3 (Homo sapiens) (UniProt Q9Y616); settings: Compound concentration 1000.0 nM
[31] = target: Tyrosine-protein kinase JAK1 (Homo sapiens) (UniProt P23458); settings: Compound concentration 1000.0 nM; remark: listed apart in the source
[32] = target: Calcium/calmodulin-dependent protein kinase kinase 2 (Homo sapiens) (UniProt Q96RR4); settings: Compound concentration 1000.0 nM
[33] = target: 5'-AMP-activated protein kinase catalytic subunit alpha-1 (Homo sapiens) (UniProt Q13131); settings: Compound concentration 1000.0 nM
[34] = target: 5-hydroxytryptamine receptor 5A (Homo sapiens) (UniProt P47898); settings: Compound concentration 10.0 uM
[35] = target: Activin receptor type-1-like (Homo sapiens) (UniProt P37023); settings: Compound concentration 1000.0 nM
[36] = target: Myosin light chain kinase, smooth muscle (Homo sapiens) (UniProt Q15746); settings: Compound concentration 1000.0 nM
[37] = tested on: Mast/stem cell growth factor receptor Kit (Homo sapiens), P10721 [D816H]; settings: Compound concentration 1000.0 nM
[38] = target: Tyrosine-protein kinase Yes (Homo sapiens) (UniProt P07947); settings: Compound concentration 1000.0 nM
[39] = target: Alpha-2C adrenergic receptor (Homo sapiens) (UniProt P18825); settings: Compound concentration 10.0 uM
[40] = target: Serine/threonine-protein kinase 32B (Homo sapiens) (UniProt Q9NY57); settings: Compound concentration 1000.0 nM
[41] = target: Serine/threonine-protein kinase 32A (Homo sapiens) (UniProt Q8WU08); settings: Compound concentration 1000.0 nM
[42] = tested on: Epidermal growth factor receptor (Homo sapiens), P00533 [UNDEFINED MUTATION]; settings: Compound concentration 1000.0 nM
[43] = tested on: Mast/stem cell growth factor receptor Kit (Homo sapiens), P10721 [V559D,V654A]; settings: Compound concentration 1000.0 nM
[44] = tested on: Phosphatidylinositol 4,5-bisphosphate 3-kinase catalytic subunit alpha isoform (Homo sapiens), P42336 [E542K]; settings: Compound concentration 1000.0 nM
[45] = target: Mitogen-activated protein kinase 14 (Homo sapiens) (UniProt Q16539); settings: Compound concentration 1000.0 nM
Sequence of Mitogen-activated protein kinase 14 (Homo sapiens) (Q16539 whole entry): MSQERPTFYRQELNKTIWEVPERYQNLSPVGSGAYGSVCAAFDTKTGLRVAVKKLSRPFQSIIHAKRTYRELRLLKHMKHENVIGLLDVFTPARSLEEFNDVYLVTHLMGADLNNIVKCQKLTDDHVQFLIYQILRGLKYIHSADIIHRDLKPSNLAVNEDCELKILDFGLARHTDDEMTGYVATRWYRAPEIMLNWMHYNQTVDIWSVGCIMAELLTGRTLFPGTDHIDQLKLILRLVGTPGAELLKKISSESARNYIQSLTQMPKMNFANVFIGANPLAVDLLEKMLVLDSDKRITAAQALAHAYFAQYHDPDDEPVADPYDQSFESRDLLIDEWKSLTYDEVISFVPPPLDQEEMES

Sequence of Tyrosine-protein kinase JAK1 (Homo sapiens) (P23458 whole entry): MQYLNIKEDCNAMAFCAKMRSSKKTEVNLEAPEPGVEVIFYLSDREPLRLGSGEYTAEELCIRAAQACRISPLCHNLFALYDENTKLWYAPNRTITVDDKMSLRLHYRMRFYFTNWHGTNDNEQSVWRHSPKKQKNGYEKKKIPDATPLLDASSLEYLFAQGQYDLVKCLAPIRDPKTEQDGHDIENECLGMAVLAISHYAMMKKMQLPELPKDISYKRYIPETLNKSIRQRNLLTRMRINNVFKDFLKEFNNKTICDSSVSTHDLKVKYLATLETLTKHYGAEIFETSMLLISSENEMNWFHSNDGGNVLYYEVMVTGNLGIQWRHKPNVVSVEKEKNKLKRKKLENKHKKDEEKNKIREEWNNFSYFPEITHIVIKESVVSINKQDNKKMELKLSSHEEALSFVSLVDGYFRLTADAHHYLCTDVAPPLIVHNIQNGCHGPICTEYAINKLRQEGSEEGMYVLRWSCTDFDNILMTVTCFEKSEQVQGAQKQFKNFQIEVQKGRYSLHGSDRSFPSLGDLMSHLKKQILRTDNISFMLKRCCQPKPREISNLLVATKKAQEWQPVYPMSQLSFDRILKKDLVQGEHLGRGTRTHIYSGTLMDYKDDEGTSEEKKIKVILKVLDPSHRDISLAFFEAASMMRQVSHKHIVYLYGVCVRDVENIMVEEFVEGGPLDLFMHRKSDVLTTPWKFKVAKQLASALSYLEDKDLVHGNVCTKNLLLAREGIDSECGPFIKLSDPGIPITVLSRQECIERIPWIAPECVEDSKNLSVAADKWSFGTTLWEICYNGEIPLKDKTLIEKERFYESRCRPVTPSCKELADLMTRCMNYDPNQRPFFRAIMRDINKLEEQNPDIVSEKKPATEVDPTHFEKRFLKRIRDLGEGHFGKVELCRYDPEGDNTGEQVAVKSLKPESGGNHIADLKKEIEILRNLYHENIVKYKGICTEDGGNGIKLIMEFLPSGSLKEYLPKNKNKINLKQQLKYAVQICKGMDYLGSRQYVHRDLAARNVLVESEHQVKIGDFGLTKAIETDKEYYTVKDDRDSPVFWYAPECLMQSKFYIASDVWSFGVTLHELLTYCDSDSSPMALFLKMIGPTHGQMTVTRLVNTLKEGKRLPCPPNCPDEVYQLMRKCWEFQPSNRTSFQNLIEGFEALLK
Sequence of Proto-oncogene tyrosine-protein kinase receptor Ret (Homo sapiens), P07949 [V804M] (P07949 whole entry V804M): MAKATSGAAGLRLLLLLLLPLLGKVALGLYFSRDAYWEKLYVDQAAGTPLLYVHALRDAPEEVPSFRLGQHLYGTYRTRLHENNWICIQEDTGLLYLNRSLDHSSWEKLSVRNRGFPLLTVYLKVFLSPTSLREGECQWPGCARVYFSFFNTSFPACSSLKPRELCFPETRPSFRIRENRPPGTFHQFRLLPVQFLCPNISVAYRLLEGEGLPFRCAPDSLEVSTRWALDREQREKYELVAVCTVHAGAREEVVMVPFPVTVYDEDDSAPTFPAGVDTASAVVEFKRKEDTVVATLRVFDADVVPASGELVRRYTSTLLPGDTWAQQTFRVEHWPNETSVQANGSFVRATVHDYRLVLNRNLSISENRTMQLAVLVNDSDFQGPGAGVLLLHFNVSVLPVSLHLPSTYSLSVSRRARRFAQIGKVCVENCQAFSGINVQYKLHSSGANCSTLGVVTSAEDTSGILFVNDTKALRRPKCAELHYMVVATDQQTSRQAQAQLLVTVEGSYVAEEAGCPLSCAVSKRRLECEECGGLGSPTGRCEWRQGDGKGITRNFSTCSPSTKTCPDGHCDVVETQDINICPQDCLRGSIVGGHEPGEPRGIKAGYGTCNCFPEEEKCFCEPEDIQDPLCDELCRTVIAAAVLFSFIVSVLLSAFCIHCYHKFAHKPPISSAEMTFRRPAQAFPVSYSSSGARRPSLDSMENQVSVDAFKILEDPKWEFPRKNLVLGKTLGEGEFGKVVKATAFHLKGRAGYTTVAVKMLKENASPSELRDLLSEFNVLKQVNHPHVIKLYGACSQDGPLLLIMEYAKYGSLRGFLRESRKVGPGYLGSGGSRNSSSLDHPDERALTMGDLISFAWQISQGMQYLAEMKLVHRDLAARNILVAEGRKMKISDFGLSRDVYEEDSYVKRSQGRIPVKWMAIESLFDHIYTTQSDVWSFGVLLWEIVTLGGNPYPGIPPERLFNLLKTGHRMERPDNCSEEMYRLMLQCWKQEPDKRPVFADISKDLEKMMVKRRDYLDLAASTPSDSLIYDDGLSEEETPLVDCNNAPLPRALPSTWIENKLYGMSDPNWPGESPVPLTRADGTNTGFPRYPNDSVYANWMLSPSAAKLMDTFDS
Sequence of Serine/threonine-protein kinase haspin (Homo sapiens) (Q8TF76 whole entry): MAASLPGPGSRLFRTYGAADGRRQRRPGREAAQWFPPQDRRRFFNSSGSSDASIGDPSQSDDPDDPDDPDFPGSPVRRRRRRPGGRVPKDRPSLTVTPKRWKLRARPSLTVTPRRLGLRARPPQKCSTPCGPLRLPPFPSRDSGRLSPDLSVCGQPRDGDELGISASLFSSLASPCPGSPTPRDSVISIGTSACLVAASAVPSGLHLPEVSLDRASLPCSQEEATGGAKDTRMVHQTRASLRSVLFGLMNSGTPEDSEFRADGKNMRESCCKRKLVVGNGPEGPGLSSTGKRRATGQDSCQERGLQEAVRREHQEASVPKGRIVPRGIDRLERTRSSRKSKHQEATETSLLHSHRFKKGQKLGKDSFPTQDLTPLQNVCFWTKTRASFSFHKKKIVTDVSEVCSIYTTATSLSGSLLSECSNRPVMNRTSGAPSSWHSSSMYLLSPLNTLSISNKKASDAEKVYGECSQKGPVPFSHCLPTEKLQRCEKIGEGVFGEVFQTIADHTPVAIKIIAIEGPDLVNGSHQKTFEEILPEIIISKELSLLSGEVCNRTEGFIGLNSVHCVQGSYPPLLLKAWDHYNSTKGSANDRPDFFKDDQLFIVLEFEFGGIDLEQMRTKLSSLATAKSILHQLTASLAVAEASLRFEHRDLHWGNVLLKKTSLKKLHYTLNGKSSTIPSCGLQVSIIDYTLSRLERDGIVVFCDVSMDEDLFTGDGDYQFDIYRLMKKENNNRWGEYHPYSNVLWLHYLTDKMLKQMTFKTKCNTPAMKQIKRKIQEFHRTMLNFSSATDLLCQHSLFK
Sequence of G protein-coupled receptor kinase 4 (Homo sapiens) (P32298 whole entry, looked up): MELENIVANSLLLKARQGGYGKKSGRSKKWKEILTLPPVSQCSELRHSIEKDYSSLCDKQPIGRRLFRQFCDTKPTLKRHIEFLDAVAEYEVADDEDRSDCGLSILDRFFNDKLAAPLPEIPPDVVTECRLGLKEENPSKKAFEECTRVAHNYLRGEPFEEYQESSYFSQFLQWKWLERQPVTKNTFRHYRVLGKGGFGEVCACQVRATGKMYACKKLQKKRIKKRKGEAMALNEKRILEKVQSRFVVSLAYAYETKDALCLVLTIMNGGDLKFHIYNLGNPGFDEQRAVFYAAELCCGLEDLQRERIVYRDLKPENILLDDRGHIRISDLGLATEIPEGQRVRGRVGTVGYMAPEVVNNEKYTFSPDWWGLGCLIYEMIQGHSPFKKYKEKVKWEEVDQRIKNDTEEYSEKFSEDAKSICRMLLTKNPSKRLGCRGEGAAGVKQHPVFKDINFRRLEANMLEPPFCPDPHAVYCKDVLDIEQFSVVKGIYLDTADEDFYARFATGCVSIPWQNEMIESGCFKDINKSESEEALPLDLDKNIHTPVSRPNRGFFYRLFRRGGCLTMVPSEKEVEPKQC
Sequence of Serine/threonine-protein kinase PRP4 homolog (Homo sapiens) (Q13523 whole entry): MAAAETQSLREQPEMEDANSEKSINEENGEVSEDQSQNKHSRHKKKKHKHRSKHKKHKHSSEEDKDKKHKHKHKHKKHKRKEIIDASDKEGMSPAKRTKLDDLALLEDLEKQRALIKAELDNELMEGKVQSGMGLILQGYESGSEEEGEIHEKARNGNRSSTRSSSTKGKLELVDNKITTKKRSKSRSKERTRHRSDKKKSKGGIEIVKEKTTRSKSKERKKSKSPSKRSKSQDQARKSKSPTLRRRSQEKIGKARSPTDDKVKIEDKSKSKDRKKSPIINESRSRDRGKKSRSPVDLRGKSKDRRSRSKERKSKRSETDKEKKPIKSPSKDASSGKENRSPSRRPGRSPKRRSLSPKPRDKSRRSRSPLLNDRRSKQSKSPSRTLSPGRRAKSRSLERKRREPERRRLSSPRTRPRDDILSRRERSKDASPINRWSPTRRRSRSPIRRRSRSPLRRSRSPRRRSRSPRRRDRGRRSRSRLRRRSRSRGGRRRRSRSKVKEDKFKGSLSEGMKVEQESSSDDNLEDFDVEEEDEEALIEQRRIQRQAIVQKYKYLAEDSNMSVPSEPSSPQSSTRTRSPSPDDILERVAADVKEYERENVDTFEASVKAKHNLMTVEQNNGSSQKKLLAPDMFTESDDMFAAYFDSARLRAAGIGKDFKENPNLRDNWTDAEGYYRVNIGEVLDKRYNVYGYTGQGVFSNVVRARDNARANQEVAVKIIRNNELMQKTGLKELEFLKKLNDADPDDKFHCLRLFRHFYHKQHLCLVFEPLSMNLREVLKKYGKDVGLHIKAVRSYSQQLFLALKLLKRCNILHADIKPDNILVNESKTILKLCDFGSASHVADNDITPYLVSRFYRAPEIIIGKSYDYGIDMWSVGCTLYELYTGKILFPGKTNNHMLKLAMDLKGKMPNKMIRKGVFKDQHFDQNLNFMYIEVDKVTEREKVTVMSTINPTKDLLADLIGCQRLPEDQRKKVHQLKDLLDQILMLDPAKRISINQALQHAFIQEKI

CC(=O)c1c(NS(C)(=O)=O)c2cc(-c3ccc(Cl)cc3)c(-c3ccc(Cl)cc3Cl)nc2n(C)c1=O [MRL-CB1-NC] was tested, and the residual activity [1] was 79%, the residual activity [2] was 83% and the residual activity [3] was 100%. It also gave a residual activity [4] of 96%, a residual activity [5] of 100% and a residual activity [6] of 92%. The residual activity [7] was 94%, the residual activity [8] was 92% and the residual activity [9] was 100%. For the same compound, the residual activity [10] was 97%, the residual activity [11] was 76% and the residual activity [12] was 84%. It also gave a residual activity [13] of 84%, a residual activity [14] of 99% and a residual activity [15] of 100%. For the same compound, the residual activity [16] was 76%, the residual activity [17] was 66% and the residual activity [18] was 100%. It also gave a residual activity [19] of 100%, a residual activity [20] of 100% and a residual activity [21] of 98%. For the same compound, the residual activity [22] was 100%, the residual activity [23] was 100% and the residual activity [24] was 100%. For the same compound, the residual activity [25] was 100%, the residual activity [26] was 98% and the residual activity [27] was 100%. It also gave a residual activity [28] of 100%, a residual activity [29] of 100% and a residual activity [30] of 100%. For the same compound, the residual activity [31] was 93%, the residual activity [32] was 100% and the residual activity [33] was 100%. The inhibition [34] was 39.9%, the residual activity [35] was 100% and the residual activity [36] was 93%. The residual activity [37] was 70%, the residual activity [38] was 96% and the inhibition [39] was 78.9%. For the same compound, the residual activity [40] was 89%, the residual activity [41] was 87% and the residual activity [42] was 91%. The residual activity [43] was 89%, the residual activity [44] was 76% and the residual activity [45] was 100%.

Work on CC(=O)Nc1c(C(C)=O)c(=O)n(C)c2nc(-c3ccc(Cl)cc3Cl)c(-c3ccc(Cl)cc3)cc12 [NAPHTHYRIDINONE] yielded a residual activity [1] of 93%, a residual activity [2] of 100% and a residual activity [3] of 100%. The residual activity [4] was 100%, the residual activity [5] was 100% and the residual activity [6] was 100%. For the same compound, the residual activity [7] was 100%, the residual activity [8] was 100% and the residual activity [9] was 94%. It also gave a residual activity [10] of 100%, a residual activity [11] of 100% and a residual activity [12] of 88%. It also gave a residual activity [13] of 87%, a residual activity [14] of 100% and a residual activity [15] of 100%. For the same compound, the residual activity [16] was 87%, the residual activity [17] was 100% and the residual activity [18] was 92%. The residual activity [19] was 100%, the residual activity [20] was 100% and the residual activity [21] was 100%. The residual activity [22] was 100%, the residual activity [23] was 100% and the residual activity [24] was 100%. It also gave a residual activity [25] of 100%, a residual activity [26] of 100% and a residual activity [27] of 100%. It also gave a residual activity [28] of 100%, a residual activity [29] of 100% and a residual activity [30] of 95%. For the same compound, the residual activity [31] was 100%, the residual activity [32] was 100% and the residual activity [33] was 100%. It also gave an inhibition [34] of 14.3%, a residual activity [35] of 100% and a residual activity [36] of 100%. The residual activity [37] was 100%, the residual activity [38] was 100% and the inhibition [39] was 3.44%. It also gave a residual activity [40] of 100%, a residual activity [41] of 82% and a residual activity [42] of 100%. It also gave a residual activity [43] of 100%, a residual activity [44] of 94% and a residual activity [45] of 100%.
